In US8785482B2, “Cyclohexene benzotriazole derivatives” (Merck Sharp & Dohme Corp., priority 2011, dated 2014):

These compounds were tested against T1, recombinant human mGluR2 (Homo sapiens, UniProt Q14416) (assay: FLIPR Ca2+ mobilization assay, potentiation of glutamate response). Settings: CHO dhfr- cells expressing human mGluR2 and Gα16, EC20 glutamate (900 nM).
T1 construct: expressed in transfected cells
Assay type: cell-based
Experimental: Potencies are determined as follows. The compounds of the present invention may be tested in a fluorescence laser imaging plate reader (FLIPR) based assay. This assay is a common functional assay to monitor Ca^2+ mobilization in whole cells expressing recombinant receptor coupled with a promiscuous G-protein. CHO dhfr-cells stably expressing recombinant human mGluR2 and Gα16 loaded with Fluo-4 AM (Invitrogen, Carlsbad Calif.) are treated with varying concentrations of compounds and the Ca^2+ response is monitored on a FLIPR384 (Molecular Devices, Sunnydale Calif.) for agonist activity. The potentiation response is monitored after a subsequent addition of an EC20 concentration of glutamate (900 nM). The maximum calcium response at each concentration of compound for agonism or potentiation are plotted as dose responses curves fitted with a four parameters logistic equation giving EC50 and Hill coefficient using the iterative non linear curve fitting software program.
Such results are indicative of the intrinsic activity of the compounds in use as potentiators of mGluR2 receptor activity.

T1 sequence (Q14416 19-872): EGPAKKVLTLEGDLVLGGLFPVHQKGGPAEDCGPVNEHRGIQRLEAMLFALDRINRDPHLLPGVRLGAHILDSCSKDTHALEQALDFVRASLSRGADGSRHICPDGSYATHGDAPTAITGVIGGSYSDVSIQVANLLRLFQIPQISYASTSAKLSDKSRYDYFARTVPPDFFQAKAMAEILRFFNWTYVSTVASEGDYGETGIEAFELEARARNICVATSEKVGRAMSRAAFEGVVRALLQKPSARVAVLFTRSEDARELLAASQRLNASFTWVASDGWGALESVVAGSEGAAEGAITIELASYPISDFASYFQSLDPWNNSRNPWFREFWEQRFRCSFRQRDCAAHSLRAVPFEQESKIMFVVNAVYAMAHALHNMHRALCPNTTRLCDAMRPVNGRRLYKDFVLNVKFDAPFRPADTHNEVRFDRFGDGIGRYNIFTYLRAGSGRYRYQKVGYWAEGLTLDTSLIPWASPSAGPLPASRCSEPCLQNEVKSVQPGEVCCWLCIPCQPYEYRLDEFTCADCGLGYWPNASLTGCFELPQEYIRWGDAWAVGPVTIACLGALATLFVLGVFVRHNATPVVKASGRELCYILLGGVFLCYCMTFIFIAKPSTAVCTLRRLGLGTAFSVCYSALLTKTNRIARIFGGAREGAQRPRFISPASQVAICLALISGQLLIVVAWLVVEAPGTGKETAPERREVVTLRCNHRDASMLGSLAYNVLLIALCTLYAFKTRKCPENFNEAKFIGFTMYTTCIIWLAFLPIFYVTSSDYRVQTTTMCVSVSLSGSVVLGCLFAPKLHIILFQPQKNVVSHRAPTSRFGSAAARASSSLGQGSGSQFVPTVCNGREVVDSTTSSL

EC50 [nM]	SMILES
373	COC(=O)C1CC=C(c2ccc3c(nnn3CC3CC3)c2Cl)CC1 (centres unmarked) [Example 1, Methyl 4-[4-chloro-1-(cyclopropylmethyl)-1H-benzotriazol-5-yl]cyclohex-3-ene-1-carboxylate]
77	OCC1CC=C(c2ccc3c(nnn3CC3CC3)c2Cl)CC1 (centres unmarked) [Example 2, {4-[4-Chloro-1-(cyclopropylmethyl)-1H-benzotriazol-5-yl]cyclohex-3-en-1-yl}methanol]
17	CN1C(=O)CN(CC2CC=C(c3ccc4c(nnn4CC4CC4)c3Cl)CC2)C1=O (centres unmarked) [Example 3, 1-({4-[4-Chloro-1-(cyclopropylmethyl)-1H-benzotriazol-5-yl]cyclohex-3-en-1-yl}methyl)-3-methylimidazolidine-2,4-dione]
947	Clc1c(C2=CCCCC2)ccc2c1nnn2CC1CC1 [Example 4, 4-chloro-5-cyclohex-1-en-1-yl-1-(cyclopropylmethyl)-1H-benzotriazole]
408	OC1CC=C(c2ccc3c(nnn3CC3CC3)c2Cl)CC1 (centres unmarked) [Example 5, 4-[4-chloro-1-(cyclopropylmethyl)-1H-benzotriazol-5-yl]cyclohex-3-en-1-ol]
701	N#CC1CC=C(c2ccc3c(nnn3CC3CC3)c2Cl)CC1 (centres unmarked) [Example 6, 4-[4-chloro-1-(cyclopropylmethyl)-1H-benzotriazol-5-yl]cyclohex-3-ene-1-carbonitrile]
31	COC(=O)C1CC=C(c2ccc3c(nnn3CC3CC3)c2C(F)(F)F)CC1 (centres unmarked) [Example 7, Methyl 4-[1-(cyclopropylmethyl)-4-(trifluoromethyl)-1H-benzotriazol-5-yl]cyclohex-3-ene-1-carboxylate]
15	CN1C(=O)CN(CC2CC=C(c3ccc4c(nnn4CC4CC4)c3C(F)(F)F)CC2)C1=O (centres unmarked) [Example 8, 1-({4-[1-(Cyclopropylmethyl)-4-(trifluoromethyl)-1H-benzotriazol-5-yl]cyclohex-3-en-1-yl}methyl)-3-methylimidazolidine-2,4-dione]
1560	CN1CC(c2ccc3c(nnn3CC(C)(C)C)c2Br)=CCC1CO (centres unmarked) [Example 9, {5-[4-Bromo-1-(2,2-dimethylpropyl)-1H-benzotriazol-5-yl]-1-methyl-1,2,3,6-tetrahydropyridin-2-yl}methanol]
52	OCC1CC=C(c2ccc3c(nnn3CC3CC3)c2Br)CC1 (centres unmarked) [Example 10, {4-[4-Bromo-1-(cyclopropylmethyl)-1H-benzotriazol-5-yl]cyclohex-3-en-1-yl}methanol]
9.2	CN1C(=O)CN(CC2CC=C(c3ccc4c(nnn4CC4CC4)c3Br)CC2)C1=O (centres unmarked) [Example 11, 1-({4-[4-Bromo-1-(cyclopropylmethyl)-1H-benzotriazol-5-yl]cyclohex-3-en-1-yl}methyl)-3-methylimidazolidine-2,4-dione]
